# Legend:
# Hu apoAI transgenic mice = test: Evaluation of triglyceride and cholesterol levels in hu apoAI transgenic mice; type: in vivo
# Experimental: Five to six week old male mice, transgenic for human apoAI [C57B1/6-tgn(apoa1) 1rub, Jackson Laboratory, Bar Harbor, Me.] were housed five per cage (10″×20″8″ with aspen chip bedding) with food (Purina 5001) and water available at all times. After an acclimation period of 2 weeks, animals were individually identified by ear notches, weighed, and assigned to groups based on body weight. Beginning the following morning, mice were dosed daily by oral gavage for 7 days using a 20 gauge, 1½″ curved disposable feeding needle (Popper & Sons). Treatments were test compounds (30 mg/kg), a positive control (fenofibrate, 100 mg/kg) or vehicle [1% carboxymethylcellulose (w/v)/0.25% Tween80 (w/v); 0.2 ml/mouse]. Prior to termination on day 7, mice were weighed and dosed. Three hours after dosing, animals were anesthetized by inhalation of isoflurane (2–4%; Abbott Laboratories, Chicago, Ill.) and blood obtained via cardiac puncture (0.7–1.0 ml). Whole blood was transferred to serum separator tubes (Vacutainer SST), chilled on ice, and permitted to clot. Serum was obtained after centrifugation at 4° C. and frozen until analysis for triglycerides, total cholesterol, compound levels, and serum lipoprotein profile by fast protein liquid chromatography (FPLC) coupled to an inline detection system. After sacrifice by cervical dislocation, the liver, heart and epididymal fat pads were excised and weighed.
# The animals dosed with vehicle had average triglycerides values of 60–80 mg/dl, which were reduced by the positive control fenofibrate (33–58 mg/dl with a mean reduction of 37%). The animals dosed with vehicle had average total serum cholesterol values of 140–180 mg/dl, which were increased by fenofibrate (190–280 mg/dl, with a mean elevation of 41%). […] increased the amount of HDLc (68–96 v-sec with a mean percent increase of 48%).
# Glucose was measured colorimetrically using commercially purchased reagents (Sigma #315-500). According to the manufacturers, the procedures were modified from published work (McGowan, M. W., Artiss, J. D., Strandbergh, D. R. & Zak, B. Clin Chem, 20:470–5 (1974) and Keston, A. Specific colorimetric enzymatic analytical reagents for glucose. Abstract of papers 129th Meeting ACS, 31C (1956).); and depend on the release of a mole of hydrogen peroxide for each mole of analyte, coupled with a color reaction first described by Trinder (Trinder, P. Determination of glucose in blood using glucose oxidase with an alternative oxygen acceptor. Ann Clin Biochem, 6:24 (1969)). The absorbance of the dye produced is linearly related to the analyte in the sample. The assays were further modified in our laboratory for use in a 96 well format. Standards (Sigma #339-11, Sigma #16-11, and Sigma #CC0534 for glucose, triglycerides and total cholesterol, respectively), quality control plasma (Sigma # A2034), and samples (2 or 5 μl/well) were measured in duplicate using 200 μl of reagent. An additional aliquot of sample, pipetted to a third well and diluted in 200 μl water, provided a blank for each specimen. Plates were incubated at room temperature (18, 15, and 10 minutes for glucose, triglycerides and total cholesterol, respectively) on a plate shaker (DPC Micormix 5) and absorbance read at 500 nm (glucose and total cholesterol) or 540 nm (triglycerides) on a plate reader (Wallac Victor 1420). Sample absorbances were compared to a standard curve (100–800, 10–500, and 100–400 mg/dl for glucose, triglycerides and total cholesterol, respectively). Values for the quality control sample were always within the expected range and the coefficient of variation for samples was below 10%. All samples from an experiment were assayed at the same time to minimize inter-assay variability.
# Serum lipoproteins were separated and cholesterol quantitated with an in-line detection system. Sample was applied to a Superose® 6 HR 10/30 size exclusion column (Amersham Pharmacia Biotech) and eluted with phosphate buffered saline-EDTA at 0.5 ml/min. […]
# huPPARα [1] = test: Cotransfection assay in CV-1 cells, luciferase reporter; type: cell-based, human; conditions: GAL4 chimeric system, relative to PPARα agonist reference molecule
# Experimental: (§1) […] binding (ABCD binding) was carried out using SPA technology with PPAR receptors. Tritium-labeled PPARα and PPARγ agonists were used as radioligands for generating displacement curves and IC50 values with compounds of the invention. Cotransfection assays were carried out in CV-1 cells. The reporter plasmid contained an acylCoA oxidase (AOX) PPRE and TK promoter upstream of the luciferase reporter cDNA. Appropriate PPARs and RXRα were constitutively expressed using plasmids containing the CMV promoter. For PPARα and PPARγ, interference by endogenous PPARγ in CV-1 cells was an issue. In order to eliminate such interference, a GAL4 chimeric system was used in which the DNA binding domain of the transfected PPAR was replaced by that of GAL4, and the GAL4 response element was utilized in place of the AOX PPRE. Cotransfection efficacy was determined relative to PPARα agonist and PPARβ agonist reference molecules. Efficacies were determined by computer fit to a concentration-response curve, or in some cases at a single high concentration of agonist (10 μM). For binding or cotransfection studies with receptors other than PPARs, similar assays were carried out using appropriate ligands, receptors, reporter constructs, etc., for that particular receptor.
# (§2) These studies were carried out to evaluate the ability of compounds of the invention to bind to and/or activate various nuclear transcription factors, particularly huPPARα (“hu” indicates “human”) and huPPARγ. These studies provide in vitro data concerning efficacy and selectivity of compounds of the invention. Furthermore, binding and cotransfection data for compounds of the invention were compared with corresponding data for marketed compounds that act on either huPPARα or huPPARγ.
# huPPARγ [2] = test: as above; type: cell-based, human; conditions: GAL4 chimeric system, relative to agonist reference molecule
# Experimental: as §1, with “Tritium-labeled PPARα and PPARγ agonists were used as radioligands for generating displacement curves and IC50 values with compounds of the invention.” left out, “For PPARα and PPARγ, interference by endogenous PPARγ in CV-1 cells was an issue.” left out, “Cotransfection efficacy was determined relative to PPARα agonist and PPARβ agonist reference molecules.” left out
# as §2
# huPPARγ [3] = target: T1, huPPARγ (Homo sapiens, UniProt P37231); test: DNA-dependent binding (ABCD binding), SPA, radioligand displacement; conditions: tritium-labeled PPARγ agonist radioligand
# T1 sequence (P37231 1-505): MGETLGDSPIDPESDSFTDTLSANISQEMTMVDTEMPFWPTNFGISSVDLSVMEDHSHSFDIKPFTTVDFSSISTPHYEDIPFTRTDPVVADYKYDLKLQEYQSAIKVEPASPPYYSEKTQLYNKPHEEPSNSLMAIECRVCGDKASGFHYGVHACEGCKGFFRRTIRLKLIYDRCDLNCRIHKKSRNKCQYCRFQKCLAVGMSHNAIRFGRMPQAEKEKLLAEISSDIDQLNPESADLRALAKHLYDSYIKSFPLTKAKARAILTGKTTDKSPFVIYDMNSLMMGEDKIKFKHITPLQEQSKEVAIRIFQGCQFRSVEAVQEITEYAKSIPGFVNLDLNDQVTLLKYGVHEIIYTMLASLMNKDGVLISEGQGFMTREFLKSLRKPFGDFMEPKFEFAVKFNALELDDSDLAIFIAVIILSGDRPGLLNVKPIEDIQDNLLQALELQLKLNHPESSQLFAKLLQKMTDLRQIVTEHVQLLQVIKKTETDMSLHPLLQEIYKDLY
# T1 sequence (P19793 1-462 partner): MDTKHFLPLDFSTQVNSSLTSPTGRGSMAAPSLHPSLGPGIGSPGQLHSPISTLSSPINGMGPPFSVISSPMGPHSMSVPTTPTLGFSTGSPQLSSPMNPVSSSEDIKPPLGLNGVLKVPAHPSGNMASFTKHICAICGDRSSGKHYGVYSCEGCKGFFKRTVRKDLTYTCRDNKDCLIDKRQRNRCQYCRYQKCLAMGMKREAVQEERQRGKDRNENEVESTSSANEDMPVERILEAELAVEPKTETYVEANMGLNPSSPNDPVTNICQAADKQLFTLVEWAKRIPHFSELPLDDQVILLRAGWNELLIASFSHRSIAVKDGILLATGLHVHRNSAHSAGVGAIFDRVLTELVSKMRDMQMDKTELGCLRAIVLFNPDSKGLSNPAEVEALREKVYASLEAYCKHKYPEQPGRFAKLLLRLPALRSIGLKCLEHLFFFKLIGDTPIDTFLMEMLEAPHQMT
# Experimental: as §1, with “For PPARα and PPARγ, interference by endogenous PPARγ in CV-1 cells was an issue.” left out
# as §2
# huPPARα [4] = target: T2, huPPARα (Homo sapiens, UniProt Q07869); test: as above; conditions: tritium-labeled PPARα agonist radioligand
# T2 sequence (Q07869 1-468): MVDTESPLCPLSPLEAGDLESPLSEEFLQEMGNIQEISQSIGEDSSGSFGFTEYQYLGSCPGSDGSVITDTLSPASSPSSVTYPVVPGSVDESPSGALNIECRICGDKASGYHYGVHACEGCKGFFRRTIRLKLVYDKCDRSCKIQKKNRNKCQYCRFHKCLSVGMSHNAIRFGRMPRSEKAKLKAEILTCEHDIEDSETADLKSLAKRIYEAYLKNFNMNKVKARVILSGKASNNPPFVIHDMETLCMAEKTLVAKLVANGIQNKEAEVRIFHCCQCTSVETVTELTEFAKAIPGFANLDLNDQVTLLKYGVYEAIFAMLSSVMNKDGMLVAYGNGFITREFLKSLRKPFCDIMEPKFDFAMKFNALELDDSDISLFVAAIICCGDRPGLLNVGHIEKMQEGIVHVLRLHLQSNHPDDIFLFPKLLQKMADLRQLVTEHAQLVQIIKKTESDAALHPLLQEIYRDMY
# T2 sequence (P19793 1-462 partner): T1 sequence (P19793 1-462 partner)
# Experimental: as §1, with “For PPARα and PPARγ, interference by endogenous PPARγ in CV-1 cells was an issue.” left out
# as §2
# [5] = 100 mg/kg oral gavage daily for 7 days, versus vehicle
compound,measurement,setting,value
"Cc1oc(-c2cccc(-c3ccsc3)c2)nc1CCOc1ccc(CC(C)(Oc2ccc(C(C)(C)C)cc2)C(=O)O)cc1 (centres unmarked) [Example 19, 2-Methyl-3-(4-{2-[5-methyl-2-(3-thiophen-3-yl-phenyl)-oxazol-4-yl]-ethoxy}-phenyl)-2-(4-tert-butylphenoxy)-propionic acid]",% HDLc Increase,"Hu apoAI transgenic mice; 30 mg/kg oral gavage daily for 7 days, serum HDLc FPLC area under the curve, over mice receiving vehicle",85.3%
"Cc1oc(-c2cccc(-c3ccccc3)c2)nc1CCOc1ccc(CC(C)(Oc2ccc3c(c2)OCO3)C(=O)O)cc1 (centres unmarked) [Example 58, 2-(Benzo[1,3]dioxol-5-yloxy)-3-{4-[2-(2-biphenyl-3-yl-5-methyl-oxazol-4-yl)-ethoxy]-phenyl}-2-methyl-propionic acid]",huPPARα CTF Efficacy,huPPARα [1],48%
same,huPPARγ CTF Efficacy,huPPARγ [2],101%
same,IC50,huPPARγ [3],37 nM
same,IC50,huPPARα [4],145 nM
CC(C)OC(=O)C(C)(C)Oc1ccc(C(=O)c2ccc(Cl)cc2)cc1 [fenofibrate],high density lipoprotein cholesterol (HDLc) peak area,"Hu apoAI transgenic mice; 100 mg/kg oral gavage daily for 7 days, pooled sera, FPLC, vehicle 47 to 62 v-sec",68–96 v-sec
same,average triglycerides values,"Hu apoAI transgenic mice; 100 mg/kg oral gavage daily for 7 days, serum, vehicle 60–80 mg/dl",33 to 58 mg/dL
same,average total serum cholesterol values,"Hu apoAI transgenic mice; 100 mg/kg oral gavage daily for 7 days, vehicle 140–180 mg/dl",190 to 280 mg/dL
same,mean elevation of total serum cholesterol,Hu apoAI transgenic mice; [5],41%
same,mean percent increase of HDLc,Hu apoAI transgenic mice; [5],48%
same,mean reduction of triglycerides,Hu apoAI transgenic mice; [5],37%

# Source: patent publication US7176224B2, “Oxazolyl-aryloxyacetic acid derivatives and their use as PPAR agonists” (Eli Lilly and Company, priority 2000, dated 2007)
